From US20080214680A1, “Application of arsenic as a cancer prevention agent” (priority 2003, published 2008)

Legend:
[1] = system: acute prontyelocytic leukemia cells; conditions: acute treatment of cells; cited from earlier work
[2] = system: acute prontyelocytic leukemia cells; test: Chen et al.: acute treatment of leukemia cells with arsenic trioxide; assay type: cell-based; conditions: equivalent of 0.1 μmoles per liter
Experimental: Bae cites a paper by Chen et at. (May 1, 1997) in his references, published more than a year before his patent filing, which recites the use of arsenic trioxide (As2O3) as an acute treatment on acute prontyelocytic leukemia cells. The treatment is effective over an exposure range of 0.5-2.0 μmoles per liter, but ineffective at 0.1 μmoles per liter. These values are equivalent to […] and 0.02 μg/ml, respectively. Chen requires just 9-36 percent of Bae's arsenic hexoxide dose to produce an acute effect on cells with arsenic trioxide. (Two percent of Bae's dose [0.1 μmoles per liter] is an […] cellular dose for arsenic trioxide.) For treating humans, Bae's prolonged daily exposure to arsenic hexoxide is 1818-times greater than […] effective cellular dose and 40,000-times greater than 50 ppb. Chen reports no human exposure data, but if he treated cancers in humans with an 1818-times greater daily dose of arsenic trioxide, that exposure would be 3600-14,400-times greater than this invention's 50 ppb or μg/L. Chen's ineffective dose would be 720-times greater than 50 μg/L.

In the case of arsenic trioxide, the effective exposure range [1] is listed as 0.5-2.0 μmoles per liter, the ineffective exposure [1] is listed as 0.1 μmoles per liter and the “ineffective exposure, mass equivalent” value [2] is listed as 0.02 µg/mL.
